According to ChEMBL document CHEMBL5634143, “Development of teixobactin analogues containing hydrophobic, non-proteogenic amino acids that are highly potent against multidrug-resistant bacteria and biofilms” (Eur J Med Chem, 2023):
Values after ≈ are worked out from the molar mass of the structure shown. Active and inactive are the calls of the source. The calls are words filed in the database; no cut-off is given here.

Legend:
Staphylococcus aureus [1] = experiment: Antibacterial activity against methicilin-resistant Staphylococcus aureus 21455 assessed as inhibition of bacterial growth; format: functional
Cell membrane [2] = experiment: Induction of cytoplasmic membrane depolarization in methicilin-resistant Staphylococcus aureus 21455 at 8 times MIC by DiSC3(5) dye-based fluorescence assay
Cell membrane [3] = experiment: Induction of cell membrane […] in methicilin-resistant Staphylococcus aureus 21455 assessed as increase in fluorescence intensity at 16 times MIC by SYTOX green dye based fluorescence analysis; format: cell membranes
Staphylococcus aureus [4] = experiment: Antibacterial activity against Staphylococcus aureus 15981 assessed as inhibition of biofilm formation at 10 ug/ml incubated for 5 hrs by confocal microscopic analysis; format: functional, organism-based; conditions: dose 10.0 µg/ml
Staphylococcus aureus [5] = experiment: Bactericidal activity against methicilin-resistant Staphylococcus aureus 21455 assessed as reduction in bacterial viability at 2 times MIC observed after 4 hrs by time-kill kinetic assay relative to control; format: functional
[6] = Hemolytic activity in rabbit erythrocytes assessed as hemolysis at 256 microg/ml relative to control; format: toxicity, cell-based, Oryctolagus cuniculus, Erythrocyte; conditions: at 256 µg/mL, read-out: Activity
Enterococcus faecium [7] = experiment: Antibacterial activity against Vancomycin-resistant Enterococcus faecium 1014 assessed as inhibition of bacterial growth; format: functional
[8] = Hemolytic activity in rabbit erythrocytes assessed as hemolysis at 64 microg/ml relative to control; format: toxicity, cell-based, Oryctolagus cuniculus, Erythrocyte; conditions: at 64 µg/mL, read-out: Activity
[9] = test system: Staphylococcus saprophyticus; experiment: Antibacterial activity against Staphylococcus saprophyticus ATCC 49453 assessed as inhibition of bacterial growth; format: functional
Enterococcus faecium [10] = experiment: Antibacterial activity against Vancomycin-resistant Enterococcus […] ATCC 700802 assessed as inhibition of bacterial growth; format: functional
Cell membrane [11] = experiment: Induction of cytoplasmic membrane depolarization in methicilin-resistant Staphylococcus aureus 21455 at 16 times MIC by DiSC3(5) dye-based fluorescence assay
Staphylococcus aureus [12] = experiment: Antibacterial activity against Staphylococcus aureus 29213 assessed as inhibition of bacterial growth; format: functional
Enterococcus faecium [13] = experiment: Antibacterial activity against Vancomycin-resistant Enterococcus […] ATCC 29212 assessed as inhibition of bacterial growth; format: functional; conditions: Enterococcus faecalis
Staphylococcus aureus [14] = experiment: Antibacterial activity against methicilin-resistant Staphylococcus aureus 1003 assessed as inhibition of bacterial growth; format: functional
Staphylococcus aureus [15] = experiment: Antibacterial activity against methicilin-resistant Staphylococcus aureus ATCC 700699 assessed as inhibition of bacterial growth; format: functional
Bacillus cereus = experiment: Antibacterial activity against Bacillus cereus ATCC 11788 assessed as inhibition of bacterial growth; format: functional
Staphylococcus aureus [16] = experiment: Antibacterial activity against Staphylococcus aureus 4299 assessed as inhibition of bacterial growth; format: functional
Staphylococcus aureus [17] = experiment: Bactericidal activity against methicilin-resistant Staphylococcus aureus 21455 assessed as reduction in bacterial colony forming unit at 16 times MIC observed after 2 hrs by time-kill kinetic assay; format: functional
[18] = test system: Staphylococcus saprophyticus; experiment: Antibacterial activity against Staphylococcus saprophyticus ATCC 49907 assessed as inhibition of bacterial growth; format: functional
[19] = test system: Staphylococcus saprophyticus; experiment: Antibacterial activity against Staphylococcus saprophyticus ATCC 15305 assessed as inhibition of bacterial growth; format: functional
[20] = test system: Staphylococcus epidermidis; experiment: Antibacterial activity against Staphylococcus epidermidis 1457 assessed as inhibition of biofilm formation at 10 ug/ml incubated for 5 hrs by confocal microscopic analysis; format: functional, organism-based; conditions: dose 10.0 µg/ml
Staphylococcus aureus [21] = experiment: Bactericidal activity against methicilin-resistant Staphylococcus aureus 21455 assessed as inhibition of bacterial growth by time-kill kinetic assay; format: functional, organism-based
[22] = test system: Staphylococcus epidermidis; experiment: Antibacterial activity against Staphylococcus epidermidis 12228 assessed as inhibition of bacterial growth; format: functional
Staphylococcus aureus [23] = experiment: Antibacterial activity against methicilin-resistant Staphylococcus aureus 42412 assessed as inhibition of bacterial growth; format: functional
Bacillus subtilis = experiment: Antibacterial activity against Bacillus subtilis ATCC 6633 assessed as inhibition of bacterial growth; format: functional
Cell membrane [24] = experiment: Induction of cell membrane […] in methicilin-resistant Staphylococcus aureus 21455 assessed as increase in fluorescence intensity at 8 times MIC by SYTOX green dye based fluorescence analysis; format: cell membranes
[25] = test system: Staphylococcus saprophyticus; experiment: Antibacterial activity against Staphylococcus saprophyticus ATCC BAA 750 assessed as inhibition of bacterial growth; format: functional
Staphylococcus aureus [26] = experiment: Bactericidal activity against methicilin-resistant Staphylococcus aureus 21455 assessed as reduction in bacterial colony forming unit at 16 times MIC observed after 24 hrs by time-kill kinetic assay; format: functional, organism-based
[27] = Hemolytic activity in rabbit erythrocytes assessed as hemolysis at 512 microg/ml relative to control; format: toxicity, cell-based, Oryctolagus cuniculus, Erythrocyte; conditions: at 512 µg/mL, read-out: Activity
Staphylococcus aureus [28] = experiment: Bactericidal activity against methicilin-resistant Staphylococcus aureus 21455 assessed as inhibition of bacterial growth at >=8 times MIC by time-kill kinetic assay; format: functional, organism-based
Staphylococcus aureus [29] = experiment: Bactericidal activity against methicilin-resistant Staphylococcus aureus 21455 assessed as reduction in bacterial growth by measuring minimum bactericidal concentration at 16 times MIC by time-kill kinetic assay; format: functional
Staphylococcus aureus [30] = experiment: Bactericidal activity against methicilin-resistant Staphylococcus aureus 21455 assessed as reduction in bacterial colony forming unit at 16 times MIC observed after 8 hrs by time-kill kinetic assay; format: functional, organism-based

CC[C@H](C)[C@H](NC(=O)[C@@H](Cc1ccccc1)NC)C(=O)N[C@@H](CCCNC(=N)N)C(=O)N[C@H](CCCNC(=N)N)C(=O)N[C@@H](C(=O)N[C@H](C(=O)N[C@@H](CO)C(=O)N[C@H]1C(=O)N[C@@H](C)C(=O)N[C@@H](C2CCCCC2)C(=O)N[C@@H]([C@@H](C)CC)C(=O)O[C@H]1C)[C@@H](C)CC)[C@@H](C)CC
MIC (Staphylococcus aureus [1]): 0.25 µg/mL (≈ 0.189 µM)
Activity (Cell membrane [2]): Active
Activity (Cell membrane [3]): Active
Activity (Staphylococcus aureus [4]): Active
Activity (Staphylococcus aureus [5]): >=99.9%
hemolysis at 256 microg/ml [6]: 18%
MIC (Enterococcus faecium [7]): 1 µg/mL (≈ 0.755 µM)
hemolysis at 64 microg/ml [8]: 3.7%
MIC [9]: 0.125 µg/mL (≈ 0.0944 µM)
MIC (Enterococcus faecium [10]): 2 µg/mL (≈ 1.51 µM)
Activity (Cell membrane [11]): Active
MIC (Staphylococcus aureus [12]): 0.063 µg/mL (≈ 0.0476 µM)
MIC (Enterococcus faecium [13]): 2 µg/mL (≈ 1.51 µM)
MIC (Staphylococcus aureus [14]): 0.5 µg/mL (≈ 0.377 µM)
MIC (Staphylococcus aureus [15]): 0.25 µg/mL (≈ 0.189 µM)
MIC (Bacillus cereus): 2 µg/mL (≈ 1.51 µM)
MIC (Staphylococcus aureus [16]): 0.125 µg/mL (≈ 0.0944 µM)
Activity (Staphylococcus aureus [17]): >=3 log10CFU
MIC [18]: 0.063 µg/mL (≈ 0.0476 µM)
MIC [19]: < 0.063 µg/mL
Activity [20]: Active
Activity (Staphylococcus aureus [21]): Dose-Dependent Effect
MIC [22]: 0.063 µg/mL (≈ 0.0476 µM)
MIC (Staphylococcus aureus [23]): 0.063 µg/mL (≈ 0.0476 µM)
MIC (Bacillus subtilis): 0.063 µg/mL (≈ 0.0476 µM)
Activity (Cell membrane [24]): Active
MIC [25]: < 0.063 µg/mL

CC[C@H](C)[C@H](NC(=O)[C@@H](Cc1ccccc1)NC)C(=O)N[C@@H](CO)C(=O)N[C@H](CCC(N)=O)C(=O)N[C@@H](C(=O)N[C@H](C(=O)N[C@@H](CO)C(=O)N[C@H]1C(=O)N[C@@H](C)C(=O)N[C@@H](C2CCCCC2)C(=O)N[C@@H]([C@@H](C)CC)C(=O)O[C@H]1C)[C@@H](C)CC)[C@@H](C)CC
MIC (Staphylococcus aureus [1]): 0.125 µg/mL (≈ 0.102 µM)
Activity (Cell membrane [2]): inactive
Activity (Cell membrane [3]): 10.6%
Activity (Staphylococcus aureus [26]): Active
MIC (Enterococcus faecium [7]): 0.25 µg/mL (≈ 0.204 µM)
MIC [9]: < 0.063 µg/mL
MIC (Enterococcus faecium [10]): 0.063 µg/mL (≈ 0.0513 µM)
Activity (Cell membrane [11]): inactive
hemolysis at 512 microg/ml [27]: ≤ 2%
MIC (Staphylococcus aureus [12]): 0.063 µg/mL (≈ 0.0513 µM)
Activity (Staphylococcus aureus [28]): Active
MIC (Enterococcus faecium [13]): 0.125 µg/mL (≈ 0.102 µM)
MIC (Staphylococcus aureus [14]): 0.063 µg/mL (≈ 0.0513 µM)
MIC (Staphylococcus aureus [15]): 0.125 µg/mL (≈ 0.102 µM)
MIC (Bacillus cereus): 0.063 µg/mL (≈ 0.0513 µM)
MBC (Staphylococcus aureus [29]): 2 µg/mL (≈ 1.63 µM)
MIC (Staphylococcus aureus [16]): 0.063 µg/mL (≈ 0.0513 µM)
MIC [18]: 0.063 µg/mL (≈ 0.0513 µM)
MIC [19]: < 0.063 µg/mL
Activity (Staphylococcus aureus [30]): Active
MIC [22]: 0.063 µg/mL (≈ 0.0513 µM)
MIC (Staphylococcus aureus [23]): 0.063 µg/mL (≈ 0.0513 µM)
MIC (Bacillus subtilis): 0.063 µg/mL (≈ 0.0513 µM)
Activity (Cell membrane [24]): 8.8%
MIC [25]: 0.063 µg/mL (≈ 0.0513 µM)

CCC[C@@H]1NC(=O)[C@H](CCCNC(=N)N)NC(=O)[C@H](NC(=O)[C@H](CO)NC(=O)[C@@H](NC(=O)[C@H](NC(=O)[C@@H](CCCNC(=N)N)NC(=O)[C@H](CCCNC(=N)N)NC(=O)[C@@H](NC(=O)[C@@H](Cc2ccccc2)NC)[C@@H](C)CC)[C@@H](C)CC)[C@@H](C)CC)[C@H](C)OC(=O)[C@H]([C@@H](C)CC)NC1=O
MIC (Staphylococcus aureus [1]): 16 µg/mL (≈ 11.7 µM)
MIC (Enterococcus faecium [7]): 8 µg/mL (≈ 5.84 µM)
MIC [9]: 0.25 µg/mL (≈ 0.183 µM)
MIC (Enterococcus faecium [10]): 32 µg/mL (≈ 23.4 µM)
MIC (Staphylococcus aureus [12]): 16 µg/mL (≈ 11.7 µM)
MIC (Enterococcus faecium [13]): 32 µg/mL (≈ 23.4 µM)
MIC (Staphylococcus aureus [14]): > 32 µg/mL
MIC (Staphylococcus aureus [15]): 32 µg/mL (≈ 23.4 µM)
MIC (Bacillus cereus): 2 µg/mL (≈ 1.46 µM)
MIC (Staphylococcus aureus [16]): 16 µg/mL (≈ 11.7 µM)
MIC [18]: 0.5 µg/mL (≈ 0.365 µM)
MIC [19]: 0.25 µg/mL (≈ 0.183 µM)
MIC [22]: 2 µg/mL (≈ 1.46 µM)
MIC (Staphylococcus aureus [23]): 32 µg/mL (≈ 23.4 µM)
MIC (Bacillus subtilis): 16 µg/mL (≈ 11.7 µM)
MIC [25]: 0.5 µg/mL (≈ 0.365 µM)

CC[C@H](C)[C@H](NC(=O)[C@@H](Cc1ccccc1)NC)C(=O)N[C@@H](CCCNC(=N)N)C(=O)N[C@H](CCCNC(=N)N)C(=O)N[C@@H](C(=O)N[C@H](C(=O)N[C@@H](CO)C(=O)N[C@H]1C(=O)N[C@@H](CCCNC(=N)N)C(=O)N[C@@H](C2CCCCC2)C(=O)N[C@@H]([C@@H](C)CC)C(=O)O[C@H]1C)[C@@H](C)CC)[C@@H](C)CC
MIC (Staphylococcus aureus [1]): 2 µg/mL (≈ 1.42 µM)
Activity (Cell membrane [2]): Active
Activity (Cell membrane [3]): 70.2%
Activity (Staphylococcus aureus [5]): >=99.9%
hemolysis at 256 microg/ml [6]: 25%
MIC (Enterococcus faecium [7]): 2 µg/mL (≈ 1.42 µM)
hemolysis at 64 microg/ml [8]: 5.4%
MIC [9]: 0.063 µg/mL (≈ 0.0447 µM)
MIC (Enterococcus faecium [10]): 4 µg/mL (≈ 2.84 µM)
Activity (Cell membrane [11]): Active
MIC (Staphylococcus aureus [12]): 0.5 µg/mL (≈ 0.355 µM)
MIC (Enterococcus faecium [13]): 2 µg/mL (≈ 1.42 µM)
MIC (Staphylococcus aureus [14]): 1 µg/mL (≈ 0.709 µM)
MIC (Staphylococcus aureus [15]): 1 µg/mL (≈ 0.709 µM)
MIC (Bacillus cereus): 0.5 µg/mL (≈ 0.355 µM)
MIC (Staphylococcus aureus [16]): 1 µg/mL (≈ 0.709 µM)
Activity (Staphylococcus aureus [17]): >=3 log10CFU
MIC [18]: 0.063 µg/mL (≈ 0.0447 µM)
MIC [19]: < 0.063 µg/mL
Activity (Staphylococcus aureus [21]): Dose-Dependent Effect
MIC [22]: 0.063 µg/mL (≈ 0.0447 µM)
MIC (Staphylococcus aureus [23]): 1 µg/mL (≈ 0.709 µM)
MIC (Bacillus subtilis): 0.063 µg/mL (≈ 0.0447 µM)
Activity (Cell membrane [24]): 65.5%
MIC [25]: < 0.063 µg/mL
